Assay results reported in patent US6833456B2, “Indolyl-urea derivatives of thienopyridines useful as antiangiogenic agents, and methods for their use” (Agouron Pharmaceuticals, Inc., priority 2002, dated 2004).
Where “and” joins values, the source holds several entries; their conditions need not be identical. Identical values can stand only once.

Experiments:
[1] = target: T1, KDR (VEGFR2) (Homo sapiens, UniProt P35968); assay: KDR (VEGFR2) phosphorylation in PAE-KDR cells assay; format: cell-based; details: PAE cells overexpressing human KDR, VEGF stimulated; read-out: PAE KDR autophos IC50
T1 construct: expressed in transfected cells; host or cells: porcine aorta endothelial (PAE) cells
T1 sequence (P35968 20-1356): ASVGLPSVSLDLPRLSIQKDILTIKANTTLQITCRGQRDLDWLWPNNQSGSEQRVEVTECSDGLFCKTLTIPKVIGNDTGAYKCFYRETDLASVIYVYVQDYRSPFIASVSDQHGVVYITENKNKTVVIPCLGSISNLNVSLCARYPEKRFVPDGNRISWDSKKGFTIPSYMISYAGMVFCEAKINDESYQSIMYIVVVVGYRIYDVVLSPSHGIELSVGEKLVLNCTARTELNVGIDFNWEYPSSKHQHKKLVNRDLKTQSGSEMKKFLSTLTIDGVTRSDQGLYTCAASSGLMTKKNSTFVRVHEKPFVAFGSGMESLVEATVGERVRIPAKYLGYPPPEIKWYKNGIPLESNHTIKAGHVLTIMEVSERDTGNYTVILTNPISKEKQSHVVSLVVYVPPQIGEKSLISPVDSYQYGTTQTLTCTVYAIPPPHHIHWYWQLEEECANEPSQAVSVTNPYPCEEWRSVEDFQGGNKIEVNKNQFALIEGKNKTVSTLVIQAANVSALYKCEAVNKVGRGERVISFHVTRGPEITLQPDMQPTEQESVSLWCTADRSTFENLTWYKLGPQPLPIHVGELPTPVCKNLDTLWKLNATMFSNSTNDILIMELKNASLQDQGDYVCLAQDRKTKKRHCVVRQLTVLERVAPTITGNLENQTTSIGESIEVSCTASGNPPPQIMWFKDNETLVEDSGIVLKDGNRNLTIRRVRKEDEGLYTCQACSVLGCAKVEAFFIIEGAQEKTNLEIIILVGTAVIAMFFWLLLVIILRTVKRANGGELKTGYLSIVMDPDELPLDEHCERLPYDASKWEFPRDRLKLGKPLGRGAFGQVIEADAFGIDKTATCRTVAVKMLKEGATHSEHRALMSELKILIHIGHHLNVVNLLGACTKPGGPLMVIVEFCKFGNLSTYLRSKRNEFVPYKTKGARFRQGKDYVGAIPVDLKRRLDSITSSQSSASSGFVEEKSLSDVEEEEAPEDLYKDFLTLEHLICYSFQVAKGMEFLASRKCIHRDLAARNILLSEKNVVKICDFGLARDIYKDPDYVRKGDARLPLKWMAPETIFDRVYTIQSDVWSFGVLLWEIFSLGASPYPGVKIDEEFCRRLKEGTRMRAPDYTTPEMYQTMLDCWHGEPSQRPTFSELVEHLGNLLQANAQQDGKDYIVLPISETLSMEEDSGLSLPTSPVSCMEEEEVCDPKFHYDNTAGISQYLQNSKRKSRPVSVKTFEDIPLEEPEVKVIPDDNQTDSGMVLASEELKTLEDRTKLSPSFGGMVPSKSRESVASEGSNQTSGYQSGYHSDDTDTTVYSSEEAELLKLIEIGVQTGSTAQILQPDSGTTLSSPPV
How it was run: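 PAE cells overexpressing human KDR, serum-starved 16 h (0.1% FBS), treated with compound 1 h at 37° C (0.5% DMSO), then stimulated 8 min with 500 ng/ml VEGF plus 2 mM Na3VO4. Lysate KDR phosphotyrosine measured by capture ELISA (anti-pY HRP, 450 nm); IC50 by four-parameter fit.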

[2] = target: T2, unphosphorylated VEGF-R2Δ50 (FLVK) (Homo sapiens, UniProt P35968, DEL940-989/E990V); assay: VEGF-R2 coupled spectrophotometric assay, unphosphorylated construct (FLVK); format: biochemical; details: for inhibition at 0.05 µM: percent inhibition at 50 nM
T2 construct: VEGF-R2Δ50 contains residues 806-939 and 990-1171; made in house; host or cells: baculovirus/insect cell system
T2 sequence (P35968 with tags, fused parts or gaps DEL940-989/E990V limits assumed): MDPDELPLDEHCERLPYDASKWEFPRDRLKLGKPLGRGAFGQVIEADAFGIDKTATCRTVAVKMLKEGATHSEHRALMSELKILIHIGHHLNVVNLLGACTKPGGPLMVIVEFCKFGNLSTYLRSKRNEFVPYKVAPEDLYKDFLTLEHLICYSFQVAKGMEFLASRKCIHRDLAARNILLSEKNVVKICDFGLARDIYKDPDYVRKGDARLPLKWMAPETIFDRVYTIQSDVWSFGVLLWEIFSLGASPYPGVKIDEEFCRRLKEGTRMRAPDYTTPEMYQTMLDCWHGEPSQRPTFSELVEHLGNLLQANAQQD
How it was run: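 Continuous coupled assay (PEP, PK, LDH; NADH loss at 340 nm) in 200 mM HEPES pH 7.5 with 3 mM ATP, 20 mM poly(E4Y1), 60 mM MgCl2 plus 2 mM MnCl2, started with 5-40 nM non-autophosphorylated VEGF-R2Δ50. Ki values from activity across compound concentrations, Morrison fit.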

Compound	IC50 [1]	Ki [2] [nM]	inhibition at 0.05 µM [2] [%]
CNC(=O)n1c(C)cc2cc(Nc3ccnc4cc(C(=O)N5CCC[C@@H]5COC)sc34)ccc21 [Example 1b, 5-[2-(2R-Methoxymethyl-pyrrolidine-1-carbonyl)-thieno[3,2-b]pyridin-7-ylamino]-2-methyl-indole-1-carboxylic acid methylamide]	0.28 nM and 0.25 nM	0.96	88
CNC(=O)n1c(C)cc2cc(Nc3cccc4cc(C(=O)N5C[C@H](OC)C[C@H]5CO)sc34)ccc21 [Example 3f, 5-[2-((2S,4R)-2-Hydroxymethyl-4-methoxy-pyrrolidine-1-carbonyl)-benzo[b]thiophen-7-ylamino]-2-methyl-indole-1-carboxylic acid methylamide]	1.85 nM	10.5	57
CNC(=O)n1c(C)cc2cc(Nc3ccnc4cc(C(=O)N5CC[C@@H](O)C5)sc34)ccc21 [Example 1n, 5-[2-(3R-Hydroxy-pyrrolidine-1-carbonyl)-thieno[3,2-b]pyridin-7-ylamino]-2-methyl-indole-1-carboxylic acid methylamide]	4.01 nM and 2.77 nM	–	94
Cc1cc2cc(Nc3ccnc4cc(C(=O)N5CC[C@H](O)C5)sc34)ccc2n1C(=O)NC1CC1 [Example 1k, 5-[2-(3S-Hydroxy-pyrrolidine-1-carbonyl)-thieno[3,2-b]pyridin-7-ylamino]-2-methyl-indole-1-carboxylic acid cyclopropylamide]	2.1 nM and 5.4 nM and 4.74 nM	0.63	97
CO[C@H]1CCN(C(=O)c2cc3nccc(Oc4ccc5c(c4)cc(C)n5C(=O)NC4CC4)c3s2)C1 [Example 4h, 5-[2-(3S-Methoxy-pyrrolidine-1-carbonyl)-thieno[3,2-b]pyridin-7-yloxy]-2-methyl-indole-1-carboxylic acid cyclopropylamide]	0.116 nM and 0.34 nM and 0.21 nM	1.6	91
CNC(=O)n1c(C)cc2cc(Nc3ccnc4cc(C(=O)N5CCC[C@@H]5CO)sc34)ccc21 [Example 1a, 5-[2-(2R-Hydroxymethyl-pyrrolidine-1-carbonyl)-thieno[3,2-b]pyridin-7-ylamino]-2-methyl-indole-1-carboxylic acid methylamide]	1.06 nM	0.69	90
C#CCNC(=O)n1c(C)cc2cc(Oc3ccnc4cc(C(=O)N5CC[C@H](OC)C5)sc34)ccc21 [Example 4f, 5-[2-(3S-Methoxy-pyrrolidine-1-carbonyl)-thieno[3,2-b]pyridin-7-yloxy]-2-methyl-indole-1-carboxylic acid prop-2-ynylamide]	0.149 nM	0.85	95
CNC(=O)n1c(C)cc2cc(Oc3ccnc4cc(C(=O)N5CC[C@H](OC)C5)sc34)ccc21 [Example 4g, 5-[2-(3S-Methoxy-pyrrolidine-1-carbonyl)-thieno[3,2-b]pyridin-7-yloxy]-2-methyl-indole-1-carboxylic acid methylamide]	0.58 nM and 0.98 nM	0.23	97
CO[C@@H]1C[C@@H](CO)N(C(=O)c2cc3cccc(Nc4ccc5c(c4)cc(C)n5C(=O)NC4CC4)c3s2)C1 [Example 3g, 5-[2-((2S,4R)-2-Hydroxymethyl-4-methoxy-pyrrolidine-1-carbonyl)-benzo[b]thiophen-7-ylamino]-2-methyl-indole-1-carboxylic acid cyclopropylamide]	2.6 nM	1.12	95
COC[C@@H]1CCCN1C(=O)c1cc2nccc(Oc3ccc4c(c3)cc(C)n4C(=O)NCC#CCO)c2s1 [Example 4d, 5-(2-[(S)-2-(methoxymethyl)pyrrolidine-1-carbonyl]thieno[3,2-b]pyridin-7-yloxy)-2-methylindole-1-carboxylic acid (4-hydroxybut-2-ynyl)amide]	0.37 nM and 0.26 nM and 0.55 nM	0.41	91
CNC(=O)n1c(C)cc2cc(Oc3ccnc4cc(C(=O)N5CC[C@@H](OC)C5)sc34)ccc21 [Example 4j, 5-[2-(3R-Methoxy-pyrrolidine-1-carbonyl)-thieno[3,2-b]pyridin-7-yloxy]-2-methyl-indole-1-carboxylic acid methylamide]	0.86 nM and 0.35 nM and 0.34 nM	0.121	96
Cc1cc2cc(Nc3ccnc4cc(-c5nc(C(C)(C)O)cs5)sc34)ccc2n1C(=O)NC1CC1 [Example 3b, 5-{2-[4-(1-Hydroxy-1-methyl-ethyl)-thiazol-2-yl]-thieno[3,2-b]pyridin-7-ylamino}-2-methyl-indole-1-carboxylic acid cyclopropylamide]	0.32 nM and 0.444 nM	0.21	95
CCOC(=O)c1csc(-c2cc3nccc(Nc4ccc5c(c4)cc(C)n5C(=O)NC)c3s2)n1 [Example 3c, 2-[7-(2-Methyl-1-methylcarbamoyl-1H-indol-5-ylamino)-thieno[3,2-b]pyridin-2-yl]-thiazole-4-carboxylic acid ethyl ester]	0.1 nM and 0.041 nM	0.79	81

Continued, values first:

IC50 [1]	Ki [2] [nM]	inhibition at 0.05 µM [2] [%]	Compound
1 nM	0.932	90	Cc1cc2cc(Oc3ccnc4cc(C(=O)N5CC[C@H](O)C5)sc34)ccc2n1C(=O)NCCO [Example 9k, 5-[2-(3S-Hydroxy-pyrrolidine-1-carbonyl)-thieno[3,2-b]pyridin-7-yloxy]-2-methyl-indole-1-carboxylic acid (2-hydroxy-ethyl)-amide]
0.45 nM and 0.19 nM	0.286	97	C#CCNC(=O)n1c(C)cc2cc(Oc3ccnc4cc(C(=O)N5CCC[C@@H]5CO)sc34)ccc21 [Example 8q, 5-[2-(2R-Hydroxymethyl-pyrrolidine-1-carbonyl)-thieno[3,2-b]pyridin-7-yloxy]-2-methyl-indole-1-carboxylic acid prop-2-ynylamide]
0.22 nM	0.25	98	Cc1cc2cc(Oc3ccnc4cc(C(=O)N5CC[C@@H](O)C5)sc34)ccc2n1C(=O)NC1CC1 [Example 4p, 5-[2-(3R-Hydroxy-pyrrolidine-1-carbonyl)-thieno[3,2-b]pyridin-7-yloxy]-2-methyl-indole-1-carboxylic acid cyclopropylamide]
0.123 nM and 0.31 nM	0.32	99	C#CCNC(=O)n1c(C)c(Cl)c2c(F)c(Oc3ccnc4cc(C(=O)N5CC[C@H](O)C5)sc34)ccc21 [Example 6d, 3-Chloro-4-fluoro-5-[2-(3S-hydroxy-pyrrolidine-1-carbonyl)-thieno[3,2-b]pyridin-7-yloxy]-2-methyl-indole-1-carboxylic acid prop-2-ynylamide]
0.28 nM and 0.5 nM and 0.53 nM	0.12	100	CNC(=O)n1c(C)cc2c(F)c(Oc3ccnc4cc(C(=O)N5CCC[C@H]5CO)sc34)ccc21 [Example 5n, 4-Fluoro-5-[(2-{[(2S)-2-(hydroxymethyl)pyrrolidin-1-yl]carbonyl}thieno[3,2-b]pyridin-7-yl)oxy]-N,2-dimethyl-1H-indole-1-carboxamide]
0.33 nM	0.245	98	CCCNC(=O)n1c(C)cc2cc(Oc3ccnc4cc(C(=O)N5CC[C@H](O)C5)sc34)ccc21 [Example 9i, 5-[2-(3S-Hydroxy-pyrrolidine-1-carbonyl)-thieno[3,2-b]pyridin-7-yloxy]-2-methyl-indole-1-carboxylic acid propylamide]
0.29 nM and 0.86 nM and 0.34 nM	0.243	98	CNC(=O)n1c(C)cc2cc(Oc3ccnc4cc(C(=O)N5CC[C@H](O)C5)sc34)ccc21 [Example 9g, 5-[2-(3S-Hydroxy-pyrrolidine-1-carbonyl)-thieno[3,2-b]pyridin-7-yloxy]-2-methyl-indole-1-carboxylic acid methylamide]
0.09 nM	0.19	96	C#CCNC(=O)n1c(C)cc2cc(Oc3ccnc4cc(C(=O)N5CC[C@@H](OC)C5)sc34)ccc21 [Example 4l, 5-[2-(3R-Methoxy-pyrrolidine-1-carbonyl)-thieno[3,2-b]pyridin-7-yloxy]-2-methyl-indole-1-carboxylic acid prop-2-ynylamide]
0.012 nM and 0.009 nM	0.63	97	C#CCNC(=O)n1c(C)cc2cc(Oc3ccnc4cc(C(=O)N5CC[C@@H](O)C5)sc34)ccc21 [Example 4o, 5-[2-(3R-Hydroxy-pyrrolidine-1-carbonyl)-thieno[3,2-b]pyridin-7-yloxy]-2-methyl-indole-1-carboxylic acid prop-2-ynylamide]
0.76 nM and 0.51 nM	0.327	97	Cc1cc2cc(Oc3ccnc4cc(C(=O)N5CC[C@H](O)C5)sc34)ccc2n1C(=O)NCCCO [Example 9l, 5-[2-(3S-Hydroxy-pyrrolidine-1-carbonyl)-thieno[3,2-b]pyridin-7-yloxy]-2-methyl-indole-1-carboxylic acid (3-hydroxy-propyl)-amide]
